What was measured:
H82 cells = test: Propidium iodide / annexin V apoptosis assay by flow cytometry; format: cell-based; details: GI20 concentrations, 3 days
Experimental: Parental cells were treated with cisplatin (GI20), Selinexor (GI20) or their combination for 3 days. Alternatively, control and XPO1 CRISPR-KO cells were treated with cisplatin […] for 3 days. Then, cells were collected and stained with the APC Annexin V Apoptosis Detection Kit with PI (#640932, Biolegend, San Diego, CA) and apoptosis was analyzed by flow cytometry as previously described in Shrestha, C. L. et al., PLoS One 12: 1-17 (2017).

[1] = tested on: DNA damage response pathways in H82 cells; test: Western blot of DNA damage sensing and repair proteins; format: cell-based
Experimental: (§1) Protein extraction and western blot were performed as previously described in Gardner, E. E. et al., Cancer Cell 31: 286-299 (2017), which is incorporated by reference in its entirety herein. Antibodies for pγH2AX (#39117, Active Motif, Carlsbad, CA), pATR (#53217, Cell Signaling Technology, Danvers, MA, Danvers, MA), ATR (#13934, Cell Signaling Technology, Danvers, MA, Danvers, MA), pATM (#31068, Cell Signaling Technology, Danvers, MA, Danvers, MA), ATM (#2873, Cell Signaling Technology, Danvers, MA, Danvers, MA), pChk2 (#12298, Cell Signaling Technology, Danvers, MA, Danvers, MA), Chk2 (#2662, Cell Signaling Technology, Danvers, MA, Danvers, MA), MSH2 (#2017, Cell Signaling Technology, Danvers, MA, Danvers, MA), MLH1 (#3515, Cell Signaling Technology, Danvers, MA, Danvers, MA), XPO1 (#46249, Cell Signaling Technology, Danvers, MA, Danvers, MA), and actin (#3700, Cell Signaling Technology, Danvers, MA, Danvers, MA). Quantifications were performed with the Image Studio software (Version 3.1, LI-COR Biosciences, Lincoln, NE). Immunohistochemistry for Exportin-1 was performed with the Exportin-1 antibody #611833 from BD in TMAs including resected tumor samples form SCLC and NSCLC patients. All study subjects had provided signed informed consent for biospecimen analyses under an Institutional Review Board-approved protocol.

XPO1-KO (sgXPO1) cells = test: Selinexor specificity assay: viability of XPO1-expressing and XPO1-KO isogenic cells; format: cell-based; details: XPO1-KO isogenic cell line; viability normalized to untreated
Source text: HSA synergy scores for H69 Cisplatin+Selinexor and H69 Cisplatin+KPT-185 are 6.55 and 8.52, respectively. HSA synergy scores for H82 Cisplatin+Selinexor and H82 Cisplatin+KPT-185 are 12.29 and 10.68, respectively. […] The sequence of the sgXPO1 is AACCTGAACGAAATGCCTG (SEQ ID NO: 16). […] Two tailed Student's t-test was used to assess statistical significance of the differential expression between groups. p-values legend: * p<0.05, ** p<0.01, *** p<0.001.

[2] = tested on: AKT/mTOR pathway in H69 and H82 cell lines; test: Western blot of AKT/mTOR pathway activation; format: cell-based; set-up: concentration or dose not given beside the values; details: selinexor or combinations for 7 days
Experimental: FIGS. 9A-9G show impairment of chemotherapy-induced AKT/mTOR overactivation may contribute to selinexor efficacy in combination with chemotherapy. […] Synergy plots, showing the occurrence of synergy, addition, or antagonism (green), were calculated with the HSA method using the SynergyFinder web application (2.0).
as §1

[3] = tested on: Lx33 NEUROD1^high chemonaive SCLC PDX; test: In vivo treatment, tumor growth of chemonaive SCLC PDX Lx33; details: Lx33 PDX in NSG mice; day 17; cisplatin 2 mg/kg i.p. once/week, etoposide 3 mg/kg i.p. QDx3, Selinexor 10 mg/kg p.o. QDx3
Experimental: (§2) For treatments, 5-10 NOD.Cg-Prkd^scid Il2rg^tm1Wjl/SzJ (NSG) mice were engrafted per treatment arm and incubated until they reached 100-150 mm^3. At that point, mice were randomized into groups and treated with either vehicle, Cisplatin (2 mg/kg i.p. once/week), Etoposide (3 mg/kg i.p. QD×3), Selinexor (10 mg/kg p.o. QD×3), irinotecan (50 mg/kg i.p. WQ), or the combinations of cisplatin+etoposide, cisplatin+Selinexor, cisplatin+etoposide+Selinexor or irinotecan+Selinexor, at the previously mentioned doses. Mice weights and tumor volumes were measured twice a week and mice were sacrificed when tumors reached humane endpoint. All animal experiments were approved by the Memorial Sloan Kettering Cancer Center (MSKCC) Animal Care and Use Committee.

[4] = tested on: Lx304 ASCL1^high chemonaive SCLC PDX; test: In vivo treatment, tumor growth of chemonaive SCLC PDX Lx304; details: Lx304 PDX in NSG mice; day 14; cisplatin 2 mg/kg i.p. once/week, etoposide 3 mg/kg i.p. QDx3, Selinexor 10 mg/kg p.o. QDx3
Experimental: as §2

[5] = tested on: Lx304B ASCL1^high SCLC PDX from chemorelapsed tumor; test: In vivo treatment, tumor growth of chemorelapsed SCLC PDX Lx304B; details: Lx304B PDX in NSG mice; day 24; irinotecan 50 mg/kg i.p. WQ, Selinexor 10 mg/kg p.o. QDx3
Experimental: as §2

[6] = tested on: Lx108-R ASCL1^high cisplatin/etoposide-resistant SCLC PDX; test: In vivo treatment, tumor growth of cisplatin/etoposide-resistant SCLC PDX Lx108-R; set-up: species or system mice; details: right after chemotherapy relapse in vivo
Experimental: as §2

[7] = tested on: Lx1322 non-NE SCLC PDX from chemorelapsed tumor; test: In vivo treatment, tumor growth of chemorelapsed SCLC PDX Lx1322; details: Lx1322 PDX in NSG mice; day 14; irinotecan 50 mg/kg i.p. WQ, Selinexor 10 mg/kg p.o. QDx3
Experimental: as §2

Compound | apoptosis (propidium iodide/annexin V) (H82 cells) | reduction in the expression of MSH2 and MLH1 (Western blot) ([1]; Selinexor treatment) | cell viability after Selinexor treatment in the XPO1-KO cell line (XPO1-KO (sgXPO1) cells) | phosphorylation of mTOR, AKT and PRAS40 / AKT/mTOR pathway activation (Western blot) [2] | T/C percentage values at control arm endpoint [3] | T/C percentage values at control group endpoint [4] | activation of ATR and ATM (Western blot) ([1]; cisplatin treatment) | T/C percentage values at control arm endpoint [5] | T/C percentage at experiment endpoint [6] | T/C percentage values at control arm endpoint [7]
O=C(/C=C\n1cnc(-c2cc(C(F)(F)F)cc(C(F)(F)F)c2)n1)NNc1cnccn1 [Selinexor] | increased apoptosis | not observed | no effect in viability | suppressed | 40.99% | 38.52% | – | – | – | –
N.N.[Cl][Pt][Cl] [cisplatin] | – | – | – | Increased phosphorylation | 79.73% | 67.04% | activated | – | – | –
COc1cc([C@@H]2c3cc4c(cc3[C@@H](O[C@@H]3O[C@@H]5CO[C@@H](C)O[C@H]5[C@H](O)[C@H]3O)[C@H]3COC(=O)[C@H]23)OCO4)cc(OC)c1O [etoposide] | – | – | – | – | 63.14% | 54.59% | – | – | – | –
CCc1c2c(nc3ccc(OC(=O)N4CCC(N5CCCCC5)CC4)cc13)-c1cc3c(c(=O)n1C2)COC(=O)[C@]3(O)CC [irinotecan] | – | – | – | induced | – | – | – | 23.82% | 75.27% | 18.09%
